Measured values published in ChEMBL document CHEMBL3739307, “Synthesis and multiparametric evaluation of thiadiazoles and oxadiazoles as diacylglycerol acyltransferase type 1 inhibitors” (Bioorg Med Chem Lett, 2016).

How the values were obtained:
Liver microsome [1] = test: Metabolic stability in human liver microsomes; assay type: ADME
[2] = Metabolic stability in mouse liver microsomes; assay type: ADME
Liver microsome [3] = test: Metabolic stability in rat liver microsomes; assay type: ADME
[4] = Permeability across human Caco2 cells; assay type: ADME, cell-based; conditions: Caco-2, read-out: permeability
[5] = Oral bioavailability in rat; assay type: ADME, organism-based; conditions: in vivo
[6] = Cmax in rat plasma at 10 mg/kg, po administered as single dose; assay type: ADME, organism-based; set-up: dose 10 mg/kg, route oral
[7] = Cmax in rat liver at 10 mg/kg, po administered as single dose; assay type: ADME, organism-based; set-up: dose 10 mg/kg, route oral
[8] = Cmax in rat small intestine at 10 mg/kg, po administered as single dose; assay type: ADME, organism-based; set-up: dose 10 mg/kg, route oral
[9] = Cmax in rat heart at 10 mg/kg, po administered as single dose; assay type: ADME, organism-based; set-up: dose 10 mg/kg, route oral
[10] = Cmax in rat brain at 10 mg/kg, po administered as single dose; assay type: ADME, organism-based; set-up: dose 10 mg/kg, route oral
[11] = Half life in rat plasma at 10 mg/kg, po administered as single dose; assay type: ADME, organism-based
[12] = Tmax in rat at 10 mg/kg, po administered as single dose; assay type: ADME, organism-based; conditions: in vivo

Stability (Liver microsome [1]) [%]	Stability [2] [%]	Stability (Liver microsome [3]) [%]	Papp [4] [×10⁻⁶ cm/s]	bioavailability [5] [%]	Cmax [6] [µM]	Cmax [7] [µM]	Cmax [8] [µM]	Cmax [9] [µM]	Cmax [10] [µM]	half-life [11] [h]	Tmax [12] [h]	Compound
2	100	53	2.9									O=C(Nc1nc(Cc2ccccc2)no1)c1ccc(O[C@H]2CC[C@@H](C(=O)O)CC2)cc1
1	99	61	0.9									O=C(Nc1nc(Cc2cc(F)cc(F)c2)no1)c1ccc(O[C@H]2CC[C@@H](C(=O)O)CC2)cc1
1	42	9	2.9	4								O=C(Nc1nnc(Cc2cc(F)cc(F)c2)s1)c1ccc(O[C@H]2CC[C@@H](C(=O)O)CC2)cc1
9	8	3	7.2									O=C(O)C[C@H]1CC[C@H](c2ccc(C(=O)Nc3nnc(CCC4CCCO4)s3)cc2)CC1 (stereo not given in full)
5	8	1	4.1									O=C(Nc1nnc(COC2CCCC2)s1)c1ccc(O[C@H]2CC[C@@H](C(=O)O)CC2)cc1
0	5	11										O=C(O)C[C@H]1CC[C@H](c2ccc(C(=O)Nc3nnc(Cc4ccccc4)s3)cc2)CC1
				40	13.2	248	14.3	4.2	0.16	7.4	4	NCCCC[C@H](N)C(=O)O.O=C(Nc1nnc(Cc2cc(F)cc(F)c2)s1)c1ccc(O[C@H]2CC[C@@H](C(=O)O)CC2)cc1
1	9	8	3									O=C(Nc1nnc(Cc2cc(F)cc(F)c2)s1)c1ccc(O[C@H]2CC[C@H](C(=O)O)CC2)cc1
1	23	37	1.1									O=C(Nc1nnc(Cc2ccccc2)s1)c1ccc(O[C@H]2CC[C@@H](C(=O)O)CC2)nc1
3	0	0	10.3									O=C(O)C[C@H]1CC[C@H](c2ccc(C(=O)Nc3nnc(COC4CCCC4)s3)cc2)CC1
2	3	4	0.6									O=C(Nc1nnc(NC2CCCC2)s1)c1ccc(O[C@H]2CC[C@@H](C(=O)O)CC2)cc1
2	56	27	1.7									O=C(Nc1nnc(Cc2cccc(Cl)c2)s1)c1ccc(O[C@H]2CC[C@@H](C(=O)O)CC2)nc1
3	27	22	1.5									O=C(Nc1nnc(Cc2ccccc2)s1)c1ccc(O[C@H]2CC[C@@H](C(=O)O)CC2)cc1
11	8	4	0.6									O=C(Nc1nnc(Nc2ccccc2)s1)c1ccc(O[C@H]2CC[C@@H](C(=O)O)CC2)cc1
